The text below walks through data of US9624269B2, “Peptide inhibitors of BACE1” (GENENTECH, INC., priority 2011, dated 2017).

Positions of bridges follow the written chain, without caps; N, C: chain ends. Residues, ends and D or L forms follow the SMILES beside them.

The test system of assay [1] is Aβ1-40 production in 293-hAPP cells. The assay can be described thus: Aβ1-40 assay in 293-hAPP cells. The format is cell-based, human. As to conditions: 293-HEK cells stably transfected with APP, 24 h. How it is done: Aβ1-40 Assay in 293-hAPP Cells.
Aβ1-40 production was measured in 293-HEK cells stably expressing wild-type human APP(695) complementary DNA (cDNA) (293-hAPP). Cells were seeded overnight at 3×10^4 cells per well in a 96-well plate. Fresh media [Dulbecco's modified Eagle's medium (DMEM)+10% fetal bovine serum (FBS)] containing various inhibitors were incubated with the 293-hAPP cells for 24 h. The cellular medium was harvested and assayed for the presence of Aβ1-40 with an Aβ1-40 HTRF assay (CisBio) according to the manufacturer's instructions. Aβ1-40 values were normalized for cell viability, as determined with the CellTiter-Glo Luminescent Cell Viability Assay (Promega). Experiments were performed at least 3 times, and each point in each experiment was repeated in duplicate. Data was plotted with a 4-parameter nonlinear regression curve-fitting program (KaleidaGraph, Synergy Software).

The target in the next assay is T1, Cathepsin D (Homo sapiens, UniProt P07339).
T1 construct: purchased EMD Biosciences, San Diego, Calif; 219394
T1 sequence (P07339 65-412, species assumed): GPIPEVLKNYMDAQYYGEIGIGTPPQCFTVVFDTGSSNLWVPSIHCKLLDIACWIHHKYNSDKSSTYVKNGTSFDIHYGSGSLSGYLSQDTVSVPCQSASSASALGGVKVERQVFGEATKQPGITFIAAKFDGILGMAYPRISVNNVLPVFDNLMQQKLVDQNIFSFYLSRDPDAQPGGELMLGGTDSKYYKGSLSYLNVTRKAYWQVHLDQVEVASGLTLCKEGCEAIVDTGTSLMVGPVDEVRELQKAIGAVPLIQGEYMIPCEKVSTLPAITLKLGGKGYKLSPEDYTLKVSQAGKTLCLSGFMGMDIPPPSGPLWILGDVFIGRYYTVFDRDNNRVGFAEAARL
Put plainly: Cathepsin D activity assay (microfluidic capillary electrophoresis). The format is biochemical. As to conditions: 6 nM Cathepsin D. The method, then: (§1) BACE1, BACE2 and Cathepsin D Activity Assay Using Microfluidic Capillary Electrophoresis (MCE).
(§2) BACE1, BACE2, and Cathepsin D reactions were carried out in a final volume of 20 μl per well in a 384-well microplate using a Caliper LabChip 3000 (Hopkinton, Mass.). A standard enzymatic reaction, initiated by the addition of 10 μ12× substrate to 5 μl of 4× enzyme and 5 μl of 4× peptide or small molecule inhibitor, contained 12 nM rhBACE1, 1 μM FAM-[…]-amide (SEQ ID NO: 20), 50 mM NaOAc, pH 4.4, 0.1% CHAPS. The same reaction conditions were used for rhBACE2 (5 nM) and Cathepsin D (6 nM) (Cat. No. 219394; EMD Biosciences, San Diego, Calif.). After incubation for 60 min at room temperature, the product and substrate in each reaction were separated using a 12-sipper microfluidic chip. Separation of product and substrate was optimized by choosing voltages and pressure using the Caliper Optimizer software. The separation buffer contained 100 mM HEPES, pH 7.2, 0.015% Brij-35, 0.1% Coating Reagent #3, 10 mM EDTA and 5% DMSO. The separation conditions used a downstream voltage of −500 V, an upstream voltage of −2250 V, and a screening pressure of −1.2 psi. The product and substrate fluorescence was excited at 488 nm and detected at 530 nm. Substrate conversion was calculated from the electrophoregram using the Caliper HTS Well Analyzer software.

For a further assay, the target named is rhBACE2 (Homo sapiens, UniProt Q9Y5Z0). The assay can be described thus: BACE2 activity assay (microfluidic capillary electrophoresis). To be noted: 5 nM rhBACE2. It counts as biochemical. How it is done: as §1, §2
Sequence of rhBACE2 (Q9Y5Z0 63-518): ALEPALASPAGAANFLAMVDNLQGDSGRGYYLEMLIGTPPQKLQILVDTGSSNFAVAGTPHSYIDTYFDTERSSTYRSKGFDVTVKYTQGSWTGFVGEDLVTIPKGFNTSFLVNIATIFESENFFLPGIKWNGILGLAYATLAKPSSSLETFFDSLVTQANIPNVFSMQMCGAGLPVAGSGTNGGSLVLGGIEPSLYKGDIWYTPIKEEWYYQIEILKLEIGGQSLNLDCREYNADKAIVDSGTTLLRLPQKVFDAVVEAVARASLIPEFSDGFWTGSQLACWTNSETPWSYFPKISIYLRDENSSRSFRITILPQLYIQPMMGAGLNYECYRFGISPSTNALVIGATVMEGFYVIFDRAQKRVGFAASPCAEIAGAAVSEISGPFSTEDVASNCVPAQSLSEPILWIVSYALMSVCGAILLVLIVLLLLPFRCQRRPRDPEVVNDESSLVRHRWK
Another assay deals with human BACE1 (rhBACE1) (Homo sapiens, UniProt P56817). Put plainly: Caliper BACE1 activity assay (microfluidic capillary electrophoresis). The format is biochemical. Details: containing human BACE1 (extracellular domain). How it is done:
An MCE assay reactions can be carried out in a standard enzymatic reaction, initiated by the addition of substrate to enzyme and 4× compound, containing human BACE1 (extracellular domain), amyloid precursor protein beta secretase active site peptide (FAM-[…]-CONH2 (SEQ ID NO: 20)), 50 mM NaOAc pH 4.4 and 0.1% CHAPS. After incubation for 60 minutes at ambient temperature, the product and substrate in each reaction is separated using a 12-sipper microfluidic chip analyzed on an LC3000® (both, Caliper Life Sciences). The separation of product and substrate is optimized by choosing voltages and pressure using the manufacturer's optimization software. Substrate conversion is calculated from the electrophoregram using HTS Well Analyzer software (Caliper Life Sciences).
as §1, §2

By IC50 is commonly meant the midpoint of a concentration-inhibition curve.

Sequence of human BACE1 (rhBACE1) (P56817 46-457 limits assumed): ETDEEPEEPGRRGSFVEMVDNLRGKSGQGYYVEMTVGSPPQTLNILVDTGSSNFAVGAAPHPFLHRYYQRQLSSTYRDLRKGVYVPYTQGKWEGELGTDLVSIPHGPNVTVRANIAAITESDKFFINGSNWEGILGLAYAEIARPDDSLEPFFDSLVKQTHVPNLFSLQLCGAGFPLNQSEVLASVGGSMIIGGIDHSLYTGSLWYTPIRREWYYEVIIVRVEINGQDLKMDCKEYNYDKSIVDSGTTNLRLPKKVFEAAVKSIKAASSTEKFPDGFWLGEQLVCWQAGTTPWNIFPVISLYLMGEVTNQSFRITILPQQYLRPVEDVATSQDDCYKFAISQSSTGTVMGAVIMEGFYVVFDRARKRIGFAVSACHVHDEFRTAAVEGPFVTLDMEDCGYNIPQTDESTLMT

`CC[C@H](C)[C@@H]1NC(=O)CNC(=O)[C@H](CC(C)C)NC(=O)[C@H](CC(C)C)NC(=O)[C@H](CCCNC(=N)N)NC(=O)[C@@H](NC(=O)[C@H](Cc2ccc(O)cc2)NC(=O)[C@H](CCSC)NC(=O)[C@H](CO)NC(=O)[C@H](CCC(=O)O)NC(C)=O)CSSC[C@@H](C(=O)NCC(N)=O)NC(=O)CNC1=O` [BACE030] (Ac-ESMYCRLLGIGCG-NH2; disulfide 5-12): the “Inhibition of Aβ production in cells (in words)” value in assay [1] is recorded as “potent inhibition”. Moreover, the “Inhibition of Cathepsin D” value at Cathepsin D is “no inhibition”. Also, the “Inhibition of BACE2” value on rhBACE2 is “no inhibition”. The same molecule showed an IC50 against human BACE1 (rhBACE1) (12 nM rhBACE1, 1 μM FAM-substrate, pH 4.4) of 18 ± 7 nM. Further, on human BACE1 (rhBACE1) (competition binding and enzymatic assays), the “peptide activity (in words)” value is “full activity”.
